# pIC50: −log10 of the molar value.
# Target: human VR1 (Homo sapiens, UniProt Q8NER1)
# Assay: Human VR1 antagonist assay (Ca2+ imaging)
# Format: cell-based
# Conditions: Ca2+ imaging assay using human VR1 highly expressing cells, fura-2/AM; agonist stimulation (capsaicin 300 nM or acid pH 5.8), not given
# Description: Human VR1 Antagonist Assay
# VR1 antagonistic activity can be determined by the Ca^2+ imaging assay using human VR1 highly expressing cells. The cells that highly express human VR1 receptors are obtainable from several different conventional methods. The one standard method is cloning from human Dorsal Root Ganglion (DRG) or kidney according to the methods such as described in the journal article; Nature, 389, pp 816-824, 1997. Alternatively VR1 receptors highly expressing human keratinocytes are also known and published in the journal article (Biochemical and Biophysical Research Communications, 291, pp 124-129, 2002). […] Furthermore, the method to up regulate human VR1 gene, which is usually a silent gene or don't produce detectable level of VR1 receptors, is also available to obtain propriety cells. Such genetic modification method was described in detail; Nat. Biotechnol., 19, pp 440-445, 2001.
# The cells that express human VR1 receptors were maintained in culture flask at 37° C. in an environment containing 5% CO2 until use in the assay. The intracellular Ca^2+ imaging assay to determine VR1 antagonistic activities were done by following procedures.
# The culture medium was removed from the flask and fura-2/AM fluorescent calcium indicator was added to the flask at a concentration of 5 μM in the medium. The flask was placed in CO2 incubator and incubated for 1 hour. Then the cells expressing the human VR1 receptors were detached from the flask follow by washing with phosphate buffer saline, PBS(−) and re-suspended in assay buffer. The 80 μl of aliquot of cell suspension (3.75×10^5 cells/ml) was added to the assay plate and the cells were spun down by centrifuge (950 rpm, 20° C., 3 minutes).
# The compounds of the examples were tested in the Human VR1 antagonist assay described above.
# The capsaicin-induced changes in the intracellular calcium concentration were monitored using FDSS 6000 (Hamamatsu Photonics, Japan), a fluorometric imaging system. The cell suspension in Krebs-Ringer HEPES (KRH) buffer (115 mM NaCl, 5.4 mM KCl, 1 mM MgSO4, 1.8 mM CaCl2, 11 mM D-Glucose, 25 mM HEPES, 0.96 mM Na2HPO4, pH 7.3) were pre-incubated with varying concentrations of the test compounds or KRH buffer (buffer control) for 15 minutes at room temperature under the dark condition. Then capsaicin solution, which gives 300 nM in assay mixture, was automatically added to the assay plate by the FDSS 6000.
# The Acid-induced changes in the intracellular calcium concentration were monitored using FDSS 6000 (Hamamatsu Photonics, Japan), a fluorometric imaging system. The cell suspension in resting buffer (HBSS supplemented with 10 mM HEPES, pH 7.4) were pre-incubated with varying concentrations of the test compounds or resting buffer (buffer control) for 15 minutes at room temperature under the dark condition. The cells were automatically added the stimulating solution (HBSS supplemented with MES, final assay buffer pH5.8) by the FDSS 6000.
# The monitoring of the changes in the fluorescence signals (λex=340 nm/380 nm, λem=510-520 nm) was initiated at 1 minute prior to the addition of capsaicin solution or acidic buffer and continued for 5 minute.
# human VR1, sequence (Q8NER1 whole entry): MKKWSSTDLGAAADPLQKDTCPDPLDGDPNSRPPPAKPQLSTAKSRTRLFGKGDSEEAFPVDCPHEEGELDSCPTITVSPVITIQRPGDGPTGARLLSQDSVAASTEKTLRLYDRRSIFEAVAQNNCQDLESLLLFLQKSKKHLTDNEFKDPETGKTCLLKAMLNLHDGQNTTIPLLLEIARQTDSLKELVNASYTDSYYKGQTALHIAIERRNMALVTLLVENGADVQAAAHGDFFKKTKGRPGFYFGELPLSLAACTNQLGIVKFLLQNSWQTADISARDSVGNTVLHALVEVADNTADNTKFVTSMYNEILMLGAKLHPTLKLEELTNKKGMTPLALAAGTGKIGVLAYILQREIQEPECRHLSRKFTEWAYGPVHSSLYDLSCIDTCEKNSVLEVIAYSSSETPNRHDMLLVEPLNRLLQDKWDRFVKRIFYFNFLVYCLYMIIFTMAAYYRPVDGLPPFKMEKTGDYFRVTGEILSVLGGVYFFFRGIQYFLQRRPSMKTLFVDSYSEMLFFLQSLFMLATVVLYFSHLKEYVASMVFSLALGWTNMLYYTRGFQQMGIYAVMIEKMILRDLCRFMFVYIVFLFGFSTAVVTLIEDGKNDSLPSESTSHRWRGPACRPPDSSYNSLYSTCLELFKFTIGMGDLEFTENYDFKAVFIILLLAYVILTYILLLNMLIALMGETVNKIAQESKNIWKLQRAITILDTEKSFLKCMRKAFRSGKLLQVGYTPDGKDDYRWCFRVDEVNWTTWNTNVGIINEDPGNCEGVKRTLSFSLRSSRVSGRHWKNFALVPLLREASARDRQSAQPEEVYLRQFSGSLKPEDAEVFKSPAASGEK
row,Compound,pIC50
1,"CC(NC(=O)c1ccc2nc(C(C)(C)C(F)(F)F)ccc2c1)c1ccc2[nH]c(=O)[nH]c2c1 (stereo not drawn) [Example C9, N-[1-(2-oxo-2,3-dihydro-1H-benzimidazol-5-yl)ethyl]-2-(2,2,2-trifluoro-1,1-dimethylethyl)quinoline-6-carboxamide]",6.82
2,"CC[C@@H](NC(=O)c1ccc2cc(C(C)(C)C)ccc2n1)c1ccc2[nH]nnc2c1 [Example B2, N-[(1R)-1-(1H-1,2,3-benzotriazol-6-yl)propyl]-6-tert-butylquinoline-2-carboxamide]",6.80
3,"C[C@@H](NC(=O)c1ccc2nc(C(C)(C)C)ccc2c1)c1ccc2[nH]c(=O)[nH]c2c1 [Example C2, 2-tert-butyl-N-[(1R)-1-(2-oxo-2,3-dihydro-1H-benzimidazol-6-yl)ethyl]quinoline-6-carboxamide]",6.85
4,"O=C(NCc1ccnc2ccccc12)c1ccc2cc(C3CC3)ccc2c1 [Example A8, 6-cyclopropyl-N-(quinolin-4-ylmethyl)-2-naphthamide]",6.39
5,"CC(C)(c1ccc2cc(C(=O)NC(CO)c3ccnc4ccccc34)ccc2n1)C(F)(F)F (stereo not drawn) [Example C20, N-(2-hydroxy-1-quinolin-4-ylethyl)-2-(2,2,2-trifluoro-1,1-dimethylethyl)quinoline-6-carboxamide]",6.24
6,"C[C@@H](NC(=O)c1ccc2cc(C(C)(C)C)ccc2n1)c1ccnc2ccccc12 (single isomer, unassigned) [Example B7, 6-tert-butyl-N-(1-quinolin-4-ylethyl)quinoline-2-carboxamide]",6.88
7,"CC(C)(c1ccc2cc(C(=O)NCc3ccnc4ccc(F)cc34)ccc2n1)C(F)(F)F [Example C11, N-[(6-fluoroquinolin-4-yl)methyl]-2-(2,2,2-trifluoro-1,1-dimethylethyl)quinoline-6-carboxamide]",6.76
8,"CCC(NC(=O)c1ccc2nc(C(C)(C)C(F)(F)F)ccc2c1)c1ccnc2ccccc12 (stereo not drawn) [Example C18, N-(1-quinolin-4-ylpropyl)-2-(2,2,2-trifluoro-1,1-dimethylethyl) quinoline-6-carboxamide]",6.87
9,"CC(NC(=O)c1ccc2nc(C(C)(C)C)ccc2c1)c1ccc2c(c1)CC(=O)N2 (stereo not drawn) [Example C3, 2-tert-butyl-N-[1-(2-oxo-2,3-dihydro-1H-indol-5-yl)ethyl] quinoline-6-carboxamide]",6.62
10,"Cc1cccc2c(CNC(=O)c3ccc4nc(C(C)(C)C(F)(F)F)ccc4c3)ccnc12 [Example C16, N-[(8-methylquinolin-4-yl)methyl]-2-(2,2,2-trifluoro-1,1-dimethylethyl)quinoline-6-carboxamide]",6.36
11,"Cc1cc(CNC(=O)c2ccc3nc(C(C)(C)C(F)(F)F)ccc3c2)c2ccccc2n1 [Example C8, N-[(2-methylquinolin-4-yl)methyl]-2-(2,2,2-trifluoro-1,1-dimethylethyl)quinoline-6-carboxamide]",6.45
12,"CC(NC(=O)c1cnc2cc(C(C)(C)C)ccc2c1)c1ccnc2ccccc12 (stereo not drawn) [Example D1, 7-tert-butyl-N-(1-quinolin-4-ylethyl)quinoline-3-carboxamide]",6.61
13,"CC1(c2ccc3cc(C(=O)NCc4ccnc5ccccc45)ccc3c2)CC1 [Example A7, 6-(1-methylcyclopropyl)-N-(quinolin-4-ylmethyl)-2-naphthamide]",6.85
14,"C[C@@H](NC(=O)c1ccc2cc(C(C)(O)C(F)(F)F)ccc2c1)c1ccnc2ccccc12 (stereo partly drawn) [Example A9, N-[(1R)-1-quinolin-4-ylethyl]-6-(2,2,2-trifluoro-1-hydroxy-1-methylethyl)-2-naphthamide]",6.42
15,"Oc1cc2c(cc1O)CN(C(=S)NCCc1ccc(Cl)cc1)CCC2 [capsazepine, reference compound]",6.34 to 6.63
16,"CC(C)(c1ccc2cc(C(=O)NCc3ccnc4c(F)cc(F)cc34)ccc2n1)C(F)(F)F [Example C12, N-[(6,8-difluoroquinolin-4-yl)methyl]-2-(2,2,2-trifluoro-1,1-dimethylethyl)quinoline-6-carboxamide]",6.58
17,"C[C@@H](NC(=O)c1ccc2nc(C(C)(O)C(F)(F)F)ccc2c1)c1ccnc2ccccc12 (stereo partly drawn) [Example C15, N-[(1R)-1-quinolin-4-ylethyl]-2-(2,2,2-trifluoro-1-hydroxy-1-methylethyl)quinoline-6-carboxamide]",6.50
18,"CC(NC(=O)c1ccc2nc(C(C)(C)C(F)(F)F)ccc2c1)c1ccc2c(c1)CC(=O)N2 (stereo not drawn) [Example C10, N-[1-(2-oxo-2,3-dihydro-1H-indol-5-yl)ethyl]-2-(2,2,2-trifluoro-1,1-dimethylethyl)quinoline-6-carboxamide]",6.56
19,"CC(C)(C)c1ccc2nc(C(=O)NCc3ccnc4ccccc34)ccc2c1 [Example B3, 6-tert-butyl-N-(quinolin-4-ylmethyl)quinoline-2-carboxamide]",6.93

# Compounds with a higher pIC50, results first:
row,pIC50,Compound
1,7.07,"CC(NC(=O)c1ccc2cc(C(C)(C)C)ccc2c1)c1ccc2c(c1)CC(=O)N2 (stereo not drawn) [Example A4, 6-tert-butyl-N-[1-(2-oxo-2,3-dihydro-1H-indol-5-yl)ethyl]-2-naphthamide]"
2,7.14,"CC(C)(c1ccc2cc(C(=O)NCc3ccnc4ccccc34)ccc2n1)C(F)(F)F [Example C5, N-(quinolin-4-ylmethyl)-2-(2,2,2-trifluoro-1,1-dimethylethyl) quinoline-6-carboxamide]"
3,7.21,"CC(C)(C)c1ccc2cc(C(=O)NCc3ccc4c(c3)CN=N4)ccc2c1 [Example A3, 6-tert-butyl-N-(3H-indazol-5-ylmethyl)-2-naphthamide]"
4,7.28,"COC(C)(c1ccc2cc(C(=O)NCc3ccnc4ccccc34)ccc2c1)C(F)(F)F (stereo not drawn) [Example A6, N-(quinolin-4-ylmethyl)-6-(1,1,1-trifluoro-2-methoxypropan-2-yl)-2-naphthamide]"
5,7.30,"C[C@@H](NC(=O)c1ccc2nc(C(C)(C)C(F)(F)F)ccc2c1)c1ccnc2ccccc12 (single isomer, unassigned) [Example C13]"
6,7.41,"C[C@@H](NC(=O)c1ccc2nc(C(C)(C)C)ccc2c1)c1ccc2[nH]nnc2c1 [Example C1, N-[(1R)-1-(1H-1,2,3-benzotriazol-6-yl)ethyl]-2-tert-butylquinoline-6-carboxamide]"
7,7.57,"CC(C)(c1ccc2cc(C(=O)NCc3cccc4cnccc34)ccc2n1)C(F)(F)F [Example C7, N-(isoquinolin-5-ylmethyl)-2-(2,2,2-trifluoro-1,1-dimethylethyl) quinoline-6-carboxamide]"
8,7.64,"CC(NC(=O)c1ccc2nc(C(C)(C)C(F)(F)F)ccc2c1)c1ccc2[nH]ncc2c1 (stereo not drawn) [Example C4, N-[1-1H-indazole-5-ylethyl]-2-(2,2,2-trifluoro-1,1-dimethylethyl)quinoline-6-carboxamide]"
9,7.75,"C[C@@H](NC(=O)c1ccc2cc(C(C)(C)C)ccc2c1)c1ccc2nn[nH]c2c1 [Example A1, N-[(1R)-1-(1H-1,2,3-benzotriazol-6-yl)ethyl]-6-tert-butyl-2-naphthamide]"
10,7.79,"CC(NC(=O)c1ccc2cc(C(C)(C)C)ccc2c1)c1ccc2[nH]ncc2c1 (stereo not drawn) [Example A5, 6-tert-butyl-N-[1-1H-indazole-5-ylethyl]-2-naphthamide]"
11,8.02,"C[C@@H](NC(=O)c1ccc2cc(C(C)(C)C)ccc2n1)c1ccc2[nH]nnc2c1 [Example B1, N-[(1R)-1-(1H-1,2,3-benzotriazol-6-yl)ethyl]-6-tert-butylquinoline-2-carboxamide]"

# Reference: patent US8134004B2, “Substituted N-bicyclicalkyl bicycliccarboxyamide compounds” (Pfizer Inc., priority 2006, dated 2012)
